Measured values published in article PMC8251769, “Phosphonate as a Stable Zinc‐Binding Group for “Pathoblocker” Inhibitors of Clostridial Collagenase H (ColH)” (Chemmedchem, 2021).
Read-outs that look alike come from different tables or passages of the source.

Legend:
[1] = biological target: ColH-PD (peptidase domain of collagenase H) (Hathewaya histolytica, UniProt Q46085); assay: biochemical
HDAC-8 = biological target: T1, HDAC-8 (Homo sapiens, UniProt Q9BY41); assay: fluorescence inhibitor screening kit; assay type: biochemical; details: read-out: Inhibition [%] at 100 μM compound^[a] / 5 a (thiol)
T1 construct: gene HDAC8
T1 sequence (Q9BY41 1-377): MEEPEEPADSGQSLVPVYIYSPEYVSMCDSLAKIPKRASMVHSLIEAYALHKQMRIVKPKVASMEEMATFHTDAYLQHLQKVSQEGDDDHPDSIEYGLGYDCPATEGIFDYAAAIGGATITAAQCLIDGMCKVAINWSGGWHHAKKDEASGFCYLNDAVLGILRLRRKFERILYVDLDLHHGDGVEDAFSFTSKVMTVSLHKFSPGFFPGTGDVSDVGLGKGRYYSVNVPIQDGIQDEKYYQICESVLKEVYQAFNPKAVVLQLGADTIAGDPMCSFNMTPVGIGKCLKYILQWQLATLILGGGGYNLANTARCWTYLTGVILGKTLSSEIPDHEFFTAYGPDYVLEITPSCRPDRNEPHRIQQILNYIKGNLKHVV
Source text: fluorescence inhibitor screening kit on HDAC-8

HDAC-3 = biological target: T2, HDAC-3 (Homo sapiens, UniProt O15379); assay: fluorescence inhibitor screening kit; assay type: biochemical; details: read-out: Inhibition [%] at 100 μM compound^[a] / 5 a (thiol)
T2 construct: gene HDAC3
T2 sequence (O15379 whole entry): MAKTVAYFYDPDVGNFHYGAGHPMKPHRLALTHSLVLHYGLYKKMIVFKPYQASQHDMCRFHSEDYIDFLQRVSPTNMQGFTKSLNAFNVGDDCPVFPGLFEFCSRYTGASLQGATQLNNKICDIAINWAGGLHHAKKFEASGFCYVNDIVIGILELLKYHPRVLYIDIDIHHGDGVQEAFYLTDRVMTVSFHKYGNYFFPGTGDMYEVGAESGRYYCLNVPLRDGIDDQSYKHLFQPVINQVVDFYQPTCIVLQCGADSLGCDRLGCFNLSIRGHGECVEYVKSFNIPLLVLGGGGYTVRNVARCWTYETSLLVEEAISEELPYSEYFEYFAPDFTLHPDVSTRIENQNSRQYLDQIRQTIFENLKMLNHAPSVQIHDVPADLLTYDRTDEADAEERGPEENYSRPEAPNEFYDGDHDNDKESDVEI
Source text: fluorescence inhibitor screening kit on HDAC-3

MMP-8 = biological target: T3, MMP-8 (Homo sapiens, UniProt P22894); assay: SensoLyte […] generic MMP activity kit; assay type: biochemical; details: read-out: Inhibition [%] at 100 μM compound^[a] / 26 (phosphonate)
T3 construct: gene MMP8; catalytic domain, AnaSpec
T3 sequence (P22894 100-262 limits assumed): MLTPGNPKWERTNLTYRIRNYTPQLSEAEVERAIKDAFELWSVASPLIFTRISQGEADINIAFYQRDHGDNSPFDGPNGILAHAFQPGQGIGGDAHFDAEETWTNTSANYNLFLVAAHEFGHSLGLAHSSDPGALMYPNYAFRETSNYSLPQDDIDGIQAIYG

MMP-14 = biological target: T4, MMP-14 (Homo sapiens, UniProt P50281); assay: SensoLyte […] generic MMP activity kit; assay type: biochemical; details: read-out: Inhibition [%] at 100 μM compound^[a] / 26 (phosphonate)
T4 construct: gene MMP14; catalytic domain, AnaSpec

Chain of ColH-PD (peptidase domain of collagenase H) (Q46085 331-721 limits assumed): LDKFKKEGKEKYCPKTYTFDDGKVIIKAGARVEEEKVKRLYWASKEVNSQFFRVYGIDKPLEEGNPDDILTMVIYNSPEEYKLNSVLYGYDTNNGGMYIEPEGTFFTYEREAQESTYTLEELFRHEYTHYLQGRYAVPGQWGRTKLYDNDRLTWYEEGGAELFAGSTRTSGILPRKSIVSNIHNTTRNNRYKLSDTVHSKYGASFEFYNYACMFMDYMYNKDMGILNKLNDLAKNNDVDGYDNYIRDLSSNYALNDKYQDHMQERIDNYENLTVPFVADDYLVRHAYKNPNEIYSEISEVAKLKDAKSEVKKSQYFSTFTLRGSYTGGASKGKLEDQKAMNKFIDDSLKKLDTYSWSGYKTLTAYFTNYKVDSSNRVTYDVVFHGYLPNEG

Row | Compound | IC50 [1] | other results
1 | CCOP(C)(=O)CC(=O)Nc1ccc(C(C)=O)cc1 (centres unmarked) [compound 27, Ethyl (2-((4-acetylphenyl)amino)-2-oxoethyl)(methyl)phosphinate] | > 500 µM | 
2 | CC(=O)c1ccc(NC(=O)Cn2cncn2)cc1 [compound 16, N-(4-Acetylphenyl)-2-(1H-1,2,4-triazol-1-yl)acetamide] | > 500 µM | 
3 | CC(=O)c1ccc(NC(=O)Cn2ccnn2)cc1 [compound 14, N-(4-Acetylphenyl)-2-(1H-1,2,3-triazol-1-yl)acetamide] | > 500 µM | 
4 | CC(=O)c1ccc(NC(=O)Cc2nn[nH]n2)cc1 [compound 19, N-(4-Acetylphenyl)-2-(2H-tetrazol-5-yl)acetamide] | 22 ± 1 µM | 
5 | CC(=O)c1ccc(NC(=O)CC#N)cc1 [compound 23, N-(4-Acetylphenyl)-2-cyanoacetamide] | > 500 µM | 
6 | O=C(CC(=O)Nc1ccccc1)NO [compound 11, N^1-Hydroxy-N^3-phenylmalonamide] | ~500 µM | 
7 | CC(=O)c1ccc(NC(=O)CS)cc1 [5a, thiol 5 a] |  | inhibition at 100 µM (HDAC-8): 48 ± 5%; inhibition at 100 µM (HDAC-3): 51 ± 7%
8 | CC(=O)c1ccc(NC(=O)CP(=O)(O)O)cc1 [compound 26, Disodium (2-((4-acetylphenyl)amino)-2-oxoethyl)phosphonate] |  | inhibition at 100 µM (MMP-8): 36 ± 1%; inhibition at 100 µM (MMP-14): 47 ± 13%; IC50 ([1]; read-out: IC50): 7 ± 1 µM
9 | CC(=O)c1ccc(NC(=O)CP(C)(=O)O)cc1 [compound 25, Sodium (2-((4-acetylphenyl)amino)-2-oxoethyl)(methyl)phosphinate] | > 500 µM | 
10 | O=C(O)CCC(=O)Nc1ccccc1 [compound 10, 4-Oxo-4-(phenylamino)butanoic acid] | > 500 µM | 
11 | CC(=O)c1ccc(NC(=O)Cn2cnnn2)cc1 [compound 17, N-(4-Acetylphenyl)-2-(1H-tetrazol-1-yl)acetamide] | > 500 µM | 
12 | CC(=O)c1ccc(NC(=O)Cc2c[nH]cn2)cc1 [compound 20, N-(4-Acetylphenyl)-2-(1H-imidazol-4-yl)acetamide] | > 500 µM | 
13 | CC(=O)c1ccc(NC(=O)CS(=O)(=O)O)cc1 [compound 24, Sodium 2-((4-acetylphenyl)amino)-2-oxoethane-1-sulfonate] | > 500 µM | 
14 | CC(=O)c1ccc(NC(=O)Cn2ccnc2)cc1 [compound 15, N-(4-Acetylphenyl)-2-(1H-imidazol-1-yl)acetamide] | 448 ± 33 µM | 
15 | CC(=O)c1ccc(NC(=O)Cn2ncnn2)cc1 [compound 18, N-(4-acetylphenyl)-2-(2H-tetrazol-2-yl)acetamide] | > 500 µM | 
16 | NC(=O)CC(=O)Nc1ccccc1 [compound 8, N^1-Phenylmalonamide] | > 500 µM | 
17 | O=C(O)CC(=O)Nc1ccccc1 [compound 9, 3-Oxo-3-(phenylamino)propanoic acid] | > 500 µM | 
